Reference: patent US5304474A, “Hydrophobic peptide esters and amides” (Board of Regents, The University of Texas System, priority 1991, dated 1994)
“Also recorded” adds a separate entry of the source.

Assays:
[1] = system: renal cell carcinoma line, Currie; assay: 51Cr release toxicity assay
Procedure: (§5) In some experiments, toxicity of Leu-Leu-OMe for a variety of cell populations was assessed by ^51 Cr release In assays where cells obtained from suspension culture were to be used, cells were labeled with Na2^51 CrO4 (ICN, Plainview, N.Y.) for 60-90 minutes at 37° C. and then washed three times. Cells were then suspended in PBS (2.5×10^6 /ml) and incubated in microtiter plates, 50 microL/well with indicated concentrations of Leu-Leu-OMe for 15 minutes at room temperature. […] Following ^51 Cr labeling, wells were thoroughly washed and varying concentrations of Leu-Leu-OMe added in 50 microL PBS and the plates incubated for 15 minutes at room temperature.
(§6) Following such initial serum-free incubations, 200 microL/well of medium RPMI containing 10% FBS were added and the plates incubated for another 4 hours prior to removal of 100 microliters of supernatant. Radioactivity in the supernatant was measured in an auto-gamma scintillation spectrometer (Packard Instrument Co., Downers Grove, Ill.). The percent specific release was calculated from the formula: [formula] in which maximal release refers to cpm obtained in wells containing 50% lysing agent (American Scientific Products, McGraw Park, Ill.) and spontaneous release refers to cpm released by cells incubated in control medium in the absence of Leu-Leu-OMe or the lysing agent.

[2] = Activity and appearance of mice post-injection; type: in vivo, C3H/HeJ mice; conditions: 15-30 minutes post-injection, about 1×10^-3 moles per kg tail-vein
Procedure: Leu-Leu-OMe or Leu-Phe-OMe were suspended in PBS, pH 7.4. Then individual C3H/HeJ mice (25 gram size) were administered by tail-vein injection either 2.5×10^-5 moles (6.5 mg) of Leu-Leu-OMe, 2.5×10^-5 moles (7.1 mg) Leu-Phe-OMe, or an equal volume of the PBS diluent, this dose being about 1×10^-3 moles per kg. […] Subsequent to this quiescent period no difference in activity or appearance in the mice was noted. Two hours post-injection, the mice were sacrificed and their spleen cells were assayed for NK function in a standard 4 hour assay against YAC-1 tumor targets. In all mice, total cell recovery ranged […] spleen cells per animal. […] Thus, Leu-Leu-OMe or Leu-Phe-OMe caused a greater than 75% decrease in splenic lytic activity against YAC-1 tumor targets.

[3] = system: epidermal carcinoma line, HEp-2; assay: 51Cr release toxicity assay
Procedure: as §5, §6

[4] = system: human umbilical vein endothelial cells; assay: 51Cr release toxicity assay
Procedure: as §5, §6

[5] = system: mononuclear phagocytes (MP); assay: Loss of MP from PBM, anti-MP (63D3) staining; type: cell-based, human; conditions: 15 minute exposure, 2 hours at 37° C. (FIG. 6)
Procedure: In the experiments depicted in FIG. 6, freshly isolated PBM (2.5×10^6 /ml PBS and 1g/l glucose) were incubated at room temperature with varying concentrations of Leu-Leu-OMe. After a 15 minute exposure to this compound, the cells were washed, incubated for 2 hours at 37° C. and then assessed for the percentage of remaining viable cells which were stained by anti-MP or anti-NK monoclonal antibodies. Preincubation with greater than 25-50 micromola Leu-Leu-OMe led to loss of NK cells.
Anti-MP monoclonal antibodies (63D3) and anti-NK monoclonal antibodies (leu 11b) were obtained from Becton Dickinson Monoclonal Center, lnc., Mountain View, Cal. The antibody staining and Fluorescence Activated Cell Sorter (FACS) procedure was that of Rosenberg et al. (1981) (J. Immunol. V 126, p 1473). Data are expressed as percent of antibody staining in control cells (mean±SEM, n=4).

[6] = system: [^3 H]Leu-Leu-OMe uptake by PBL (facilitated transport); assay: Competitive inhibition of [3H]Leu-Leu-OMe uptake; type: cell-based, human
Procedure: (§1) Human peripheral blood lymphocytes (PBL) were incubated in the presence of [^3 H]labeled Leu-Leu-OMe at 22° C. for varying lengths of time. The incubation mixture was then centrifuged through silicone oil to separate the cells from any unbound or non-internalized [^3 HLeu-Leu-OMe. […] At 37° C., levels of [^3 H]Leu-Leu-OMe accumulation by PBL were increased above those seen at 22° C. (see Table 4).

[7] = system: natural killer cells (NK); assay: NK function: lysis of K562 target cells (51Cr release) after preincubation of lymphocytes with compound
Procedure: PBM were separated from heparinized venous blood of healthy donors by centrifugation over sodium diatrizoate-Ficoll gradients (Isolymph, Gallard-Schlesinger Chemical Mfg. Corp., Carle Place, N.Y.).
All cell exposures to the amino acids, dipeptides or their methyl esters were carried out by suspending cells in Dulbecco's phosphate buffered saline (PBS) and incubating them at room temperature with the reagent at the indicated concentration and time interval.
Percent of control cytotoxicity was calculated using the formula: [formula]

[8] = system: peripheral blood lymphocytes (PBL); assay: [3H]Leu-Leu-OMe uptake/binding by lymphocytes; type: in vitro ADME, human
Procedure: as §1

[9] = system: B6 spleen cells (NK, allospecific cytotoxic T cells); assay: Cytotoxic function of B6 spleen cells after incubation; type: cell-based, murine
CTL precursors = assay: Elimination of cytotoxic T lymphocytes (6 day MLC, lysis of allogeneic stimulator lymphoblasts); type: cell-based, human
Procedure: (§2) Experiments were also designed to assess the relative sensitivity of NK and CTL to Leu-Leu-OMe. In the studies detailed in FIGS. 8 and 9, cytotoxicity assays were performed over a broad range of E:T ratios and units of lytic activity arising from equal numbers of responding lymphocytes were calculated and compared. […] Only after exposure to greater than 250 micromolar Leu-Leu-OMe were all CTL precursors eliminated.
(§3) Non-adherent lymphocytes (2.5×10^6 /ml) were incubated with the indicated concentrations of Leu-Leu-OMe for 15 minutes. Cells were then washed and either placed in mixed lymphocyte culture or assayed for specific lysis of K562 cells (NK). After 6 day MLC, cells were assayed for specific lysis of allogeneic stimulator lymphoblasts (CTL) or K562 (AcNK). Data are expressed as percent of control lytic units (mean+SEM, n=6).
(§4) Both values were also higher than the mean concentration of Leu-Leu-OMe required to diminish spontaneous NK lytic activity by 75% (35 micromolar±4 micromolar). […] Thus, only after MLC activation did CTL display a sensitivity to Leu-Leu-OMe toxicity that was equal to that of NK cells.

B Cells = assay: Leu-Leu-OMe sensitivity of cell type; type: cell-based, human
[10] = system: B6 spleen cells (NK, allospecific cytotoxic T cells); conditions: 250 micro-M (ref. 12); cited from earlier work
[11] = system: precursors of activated NK (AcNK); assay: Elimination of activated NK-like cells (6 day MLC, lysis of K562); type: cell-based, human
Procedure: as §2, §3, §4

[12] = system: CD16(+), CD4(+), CD8(+) lymphocytes; assay: Lymphocyte subsets of PBL stained with alpha-CD16, alpha-CD4, alpha-CD8; type: cell-based, human
Text: Thus, as previously reported (see prior Examples and J. Immunol. 1986; 136:1038-1048), exposure of human PBL to 250 micro-M Leu-Leu-OMe results in loss of all CD16(+) NK cells, and the majority of CD8(+) T cells and thereby results in reciprocal enrichment of the CD4(+) T cell subset which is largely Leu-Leu-OMe resistant (see Table 13).

[13] = 100 micromolar, 15 minutes (FIG. 8)

With `COC(=O)[C@H](CC(C)C)NC(=O)[C@@H](N)CC(C)C` [Leu-Leu-OMe, L-leucyl-L-leucine methyl ester] the 51Cr release [1] was “no significant Leu-Leu-OMe induced ^51 Cr release”, the subsequent proliferative capacity ([1]; 500 micromolar) was “had no discernible effect on subsequent proliferative capacity” and the “Leu--Leu--OMe Sensitivity (LD50)” value ([1]; Renal Cell Carcinoma) was > 500 micro-M. For the same compound, the “activity and appearance post-injection” value [2] was “exhibited decreased activity and an apparent increase in sleep”, the 51Cr release [3] was “no significant Leu-Leu-OMe induced ^51 Cr release” and the subsequent proliferative capacity ([3]; 500 micromolar) was “had no discernible effect on subsequent proliferative capacity”. The 51Cr release [4] was “no significant Leu-Leu-OMe induced ^51 Cr release”, the subsequent proliferative capacity ([4]; 500 micromolar) was “had no discernible effect on subsequent proliferative capacity” and the “Leu--Leu--OMe Sensitivity (LD50)” value ([4]; Endothelial Cells) was > 500 micro-M. For the same compound, the “loss of MP from PBM, in words” value [5] was “did not deplete MP from PBM; also recorded: higher concentrations of Leu-Leu-OMe caused loss of MP”, the “competitive inhibition of [3H]Leu-Leu-OMe uptake, in words” value [6] was “competitively inhibited” and the inhibition at 250 µM ([6]; Homo sapiens, unlabeled compound 250 microM, [3H]Leu-Leu-OMe 10 microM (Table 5)) was 72%. The “NK Function % Specific Lysis K562” value ([7]; 12.50 micro-M, Nil 66 (Table 14)) was 60%, the “NK Function % Specific Lysis K562” value ([7]; 25.00 micro-M, Nil 66 (Table 14)) was 12% and the “NK Function % Specific Lysis K562” value ([7]; 50 micro-M, Nil 40.8 (Table 16)) was 1.1%. For the same compound, the “NK Function % Specific Lysis K562” value ([7]; 50.00 micro-M, Nil 66 (Table 14)) was 2%, the “NK Function % Specific Lysis K562” value ([7]; 100.00 micro-M, Nil 66 (Table 14)) was < 1% and the “spontaneous NK lytic units” value [7, 13] was “totally eliminated”. For the same compound, the “concentration resulting in loss of K562 target binding and complete depletion of Leu 11b stained cells” value ([7]; MP-depleted lymphocytes) was “greater than 50 micromolar”, the “concentration above which no NK function could be detected” value ([7]; MP-depleted lymphocytes, 15 minutes room temperature (FIG. 4)) was “greater than 50 micromolar” and the “Leu--Leu--OMe Sensitivity (LD50)” value ([7]; NK Cells) was 35 micro-M. For the same compound, the “concentration causing maximal depletion of NK” value ([7]; antibody staining (FIG. 6) and functional studies (FIG. 4)) was 100 µM, the “NK Toxicity (LD50)” value ([7]; concentration which results in 50% loss of human NK function, PBL 15 minutes at 22° C.) was 35 micro-M and the “concentration in excess of which NK toxic effects are seen” value ([7]; lymphocytes exposed 15 minutes at room temperature) was > 12.5 micro-M. For the same compound, the “mean concentration required to diminish lytic activity by 75%” value (from here on “mean concentration required … by 75%”) ([7]; spontaneous NK) was 35 µM, the Km ([8]; 15 minute incubation at 22° C.) was ~100 µM and the Vmax of uptake ([8]; 15 minute incubation at 22° C.) was “approximately 10^-10 moles/minute/10^6 cells”. For the same compound, the “external concentration of near maximal uptake” value ([8]; 15 minute incubation at 22° C. (FIG. 11)) was 250-500 micro-M, the “NK function of B6 spleen cells” value ([9]; 100 micro-M) was “complete loss of NK function” and the “generation of allospecific cytotoxic T cells” value ([9]; 100 micro-M) was “only partial reduction of the generation of allospecific cytotoxic T cells”. For the same compound, the “cells with cytotoxic potential that remain” value ([9]; single treatment with 250 micro-M) was < 5%, the “CTL precursors still present, of control levels” value (CTL precursors; [13]) was “greater than 50%” and the “concentration above which all CTL precursors eliminated” value (CTL precursors; 15 minutes (FIG. 8)) was “greater than 250 micromolar”. For the same compound, the “sensitivity of CTL and AcNK following activation” value (CTL precursors; after 6 day MLC, 15 minutes incubation (FIG. 9)) was “became identical in sensitivity to Leu-Leu-OMe”, the “mean concentration required … by 75%” value (CTL precursors; elimination of CTL precursors) was 123 ± 25 µM and the “Leu--Leu--OMe Sensitivity (LD50)” value (B Cells) was > 500 micro-M. The allocytotoxicity [10] was “near total ablation of allocytotoxicity”, the “precursors of activated NK, lytic units” value [11, 13] was “totally eliminated” and the “mean concentration required … by 75%” value ([11]; elimination of precursors of activated NK) was 50 ± 5 µM. The “Cells stained with alpha-CD16” value ([12]; single agent (Leu-Leu-OMe 250 micro-M or Gly-Phe-CHN2 10^-6 M), Nil 8.1) was < 0.1, the “Cells stained with alpha-CD8” value ([12]; single agent, Nil 18.8) was 7.0 and the “Cells stained with alpha-CD4” value ([12]; single agent, Nil 60.3) was 87.2.
